These results are taken from patent publication US20080293782A1, “1,1,3-Trioxo-1,2,5-Thiadiazolidines and Their Use as Ptp-Ases Inhibitors” (priority 2005, published 2008).

One data set concerns the target T1, human PTP-1B (Homo sapiens, UniProt P18031).
T1 construct: recombinant human PTP-1B[1-298] or PTP-1B[1-322]
T1 sequence (P18031 1-298 limits assumed): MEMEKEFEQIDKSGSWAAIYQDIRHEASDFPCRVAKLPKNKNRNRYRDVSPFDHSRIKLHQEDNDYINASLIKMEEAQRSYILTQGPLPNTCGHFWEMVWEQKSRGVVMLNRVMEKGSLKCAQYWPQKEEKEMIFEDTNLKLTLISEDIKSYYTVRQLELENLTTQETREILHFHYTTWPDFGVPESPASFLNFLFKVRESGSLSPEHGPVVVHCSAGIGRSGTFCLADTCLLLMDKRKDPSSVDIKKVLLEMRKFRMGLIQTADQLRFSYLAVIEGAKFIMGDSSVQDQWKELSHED
Put plainly: inhibitory activity (IC50) to human PTP-1B. In kind it is biochemical. The procedure:
For example, the PTP-1B inhibitory activity in vitro may be determined as follows:
Assessment of human PTP-1B (hPTP-1B) activity in the presence of various agents is determined by measuring the amount of inorganic phosphate released from a phosphopeptide substrate using a 96-well microtiter plate format. The assay (100 μL) is performed in an assay buffer comprised of 50 mM TRIS (pH 7.5), 50 mM NaCl, 3 mM DTT at ambient temperature. The assay is typically performed in the presence of 0.4% dimethyl sulfoxide (DMSO). However, concentrations as high as 10% are used with certain poorly soluble compounds. […] Inorganic phosphate, a product of the enzyme reaction, is quantitiated after 15 min as the green color resulting from complexing with the Malichite reagent and is determined as an A620 using a Molecular Devices (Sunnyvale, Calif.) SpectraMAX Plus spectrophotometer. […] Activity is defined as the net change in absorbance resulting from the activity of the uninhibited hPTP-1B[1-411] minus that of a tube with acid-inactivated hPTP-1B[1-411]. […]
Alternatively, the assessment of human PTP-1B activity in the presence of various agents may be determined by measuring the hydrolysis products of known competing substrates. […]

pIC50: −log10 of the molar value.

Usually pIC50 stands for the negative decadic logarithm of the IC50, by convention in mol/L. Lower therefore signals a large IC50. At human PTP-1B, `O=C1CN(c2cc(-c3cn[nH]c3)ccc2O)S(=O)(=O)N1` [Example No. 2-5, 5-[2-Hydroxy-5-(1H-pyrazol-4-yl)-phenyl]-1,1-dioxo-1,2,5-thiadiazolidin-3-one] showed a pIC50 of 7.10.
Same read-out and setting: the figure for `N#CCCCn1cc(-c2ccc(O)c(N3CC(=O)NS3(=O)=O)c2)cn1` [Example No. 13-7, 4-{4-[4-Hydroxy-3-(1,1,4-trioxo-1,2,5-thiadiazolidin-2-yl)-phenyl]-1H-pyrazol-1-yl}-butyronitrile] is 7.07.
What is called melting point is the temperature, or range, at which the solid turns liquid. Take `O=C1CN(c2cc(Oc3ccccc3)ccc2O)S(=O)(=O)N1` [Example 14, 5-(2-Hydroxy-5-phenoxyphenyl)-1,1-dioxo-1,2,5-thiadiazolidin-3-one]: the melting point was 153 to 157 °C.
